Experimental data from US20250353848A1, “HETEROCYCLIC PAD4 INHIBITORS” (Celgene Corporation, priority 2022, published 2025).
pIC50: −log10 of the molar value.

The molecules below were run against hPAD4 enzyme (Homo sapiens, UniProt Q9UM07) (assay: RFMS Assay 1 (rapid-fire mass spectrum PAD4 inhibition assay, BAEE substrate)). Conditions: 5 nM hPAD4 enzyme, 250 μM BAEE, 30 mins compound and enzyme preincubation at 37° C., 90 min enzyme/substrate reaction.
Assay type: biochemical
Description: Compounds were solubilized in 100% DMSO to achieve a 10 mM compound concentration. Compound stock solutions were stored at RT. A series of dilutions were prepared in DMSO and mixed 8 times with 20 μL mixing volume. Final top concentration of compound in the assay is 50 μM. Final assay conditions were as follows: • Reaction volume: 26 μl • Assay buffer: 25 mM hepes, pH 7.5, 5 mM NaCl, 1 mM DTT, 0.2 mg/ml BSA, 0.01% CHAPS, 50 μM Calcium, and 5 μM TPEN • Final concentrations: 5 nM hPAD4 enzyme, 250 μM BAEE, and 0.5% DMSO • Total incubation time: 30 mins compound and enzyme preincubation at 37° C., 90 min enzyme/substrate reaction, 30 min reaction with phenyl glyoxal at 37° C. • Stop solution: 40 μl 5% TCA in ACN
0.13 μL of compound solution was added to 13 μL of 10 nM PAD4 in assay buffer. After 30 min 13 μl of 500 μM of BAEE was added in 25 mM hepes, pH 7.5, 5 mM NaCl, 1 mM DTT, 0.2 mg/ml BSA, 0.01% CHAPS, 50 µM Calcium, […] was added and the reaction incubated for 90 min at 37° C. The enzymatic reaction was quenched by addition of 15 μl of 6.1N TCA, 100% Final Concentration is 20%, 35 μl of 8.5 mM phenyl glyoxal (final concentration 4 mM) is then added and the reaction is incubated for 30 min at 37° C.
After 30 minutes the plates are spun down to remove all precipitate. The enzyme reaction was quenched with an equal volume of methanol containing internal standard (modified citrulline). Samples were loaded onto the Rapid Fire RF300 system (Agilent) wherein they were first sipped for 1000 ms and then directly loaded to a C18 separations cartridge using a mixture of acetonitrile containing 0.01% formic acid for 3000 ms desalting. The flow rate of the mobile phase was 1.5 ml/min. Once the samples were eluted from the cartridge, a mobile phase of acetonitrile containing 0.01% formic acid was used to move the samples into the mass spectrometer for 4000 ms at a flow rate of 1.25 ml/min/Sciex AP15500 triple quadrupole mass spectrometer (Applied Biosystems) equipped with ESI was used to analyze the peptidyl citrulline and internal standard ions.
MRM transition of product and internal standard were monitored at m/z 424.5 to 350.4 and m/z 293 to 247 respectively. The dwell time for each transition was set at 200 ms, and the ESI voltage was used at 5500 with a source temperature of 400° C. Extracted ion peaks for each transition were integrated using the Rapid Fire Integrator software. Peak area of analyte was normalized with internal standard.).

Chain of hPAD4 enzyme (Q9UM07 whole entry): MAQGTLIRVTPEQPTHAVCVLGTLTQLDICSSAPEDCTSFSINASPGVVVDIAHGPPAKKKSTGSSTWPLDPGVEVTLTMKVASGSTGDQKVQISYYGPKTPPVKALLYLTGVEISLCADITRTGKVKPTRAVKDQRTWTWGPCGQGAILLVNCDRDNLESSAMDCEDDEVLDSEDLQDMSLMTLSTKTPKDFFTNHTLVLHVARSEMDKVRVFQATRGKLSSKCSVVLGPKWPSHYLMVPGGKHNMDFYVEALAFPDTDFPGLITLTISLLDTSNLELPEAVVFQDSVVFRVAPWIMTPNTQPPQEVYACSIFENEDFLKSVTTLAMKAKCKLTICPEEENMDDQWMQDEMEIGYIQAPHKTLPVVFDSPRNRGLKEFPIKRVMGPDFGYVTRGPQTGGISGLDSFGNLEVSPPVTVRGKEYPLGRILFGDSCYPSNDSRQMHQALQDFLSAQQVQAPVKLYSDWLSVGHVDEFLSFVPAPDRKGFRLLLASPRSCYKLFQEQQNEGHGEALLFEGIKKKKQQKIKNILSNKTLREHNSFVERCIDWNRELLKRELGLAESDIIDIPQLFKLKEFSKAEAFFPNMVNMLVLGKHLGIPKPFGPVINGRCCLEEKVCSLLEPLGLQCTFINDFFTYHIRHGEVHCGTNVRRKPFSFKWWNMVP

First: Cn1c(-c2cc3cccc(OC[C@H]4CNS(=O)(=O)C4)c3n2CC2CC2)nc2cc3c(nc21)CCN(C[C@H](N)CF)C3=O [Example 52, 7-((S)-2-amino-3-fluoropropyl)-2-(1-(cyclopropylmethyl)-7-(((R)-1,1-dioxidoisothiazolidin-4-yl)methoxy)-1H-indol-2-yl)-3-methyl-3,5,6,7-tetrahydro-8H-imidazo[4,5-b][1,6]naphthyridin-8-one]
Second: Cn1cc(CCOc2cccc3cc(-c4nc5cc6c(nc5n4C)CCN(C[C@H](N)CF)C6=O)n(CC4CC4)c23)cn1 [Example 51, (S)-7-(2-amino-3-fluoropropyl)-2-(1-(cyclopropylmethyl)-7-(2-(1-methyl-1H-pyrazol-4-yl)ethoxy)-1H-indol-2-yl)-3-methyl-3,5,6,7-tetrahydro-8H-imidazo[4,5-b][1,6]naphthyridin-8-one]
The pIC50 of the first is lower: 7.00 to 7.96 for the first, at least 8.00 for the second. The second is the more potent here.

CC(COc1cccc2cc(-c3nc4cc5c(nc4n3C)CCN(C[C@H](N)CF)C5=O)n(CC3CC3)c12)c1cccnc1 (single isomer, unassigned) [Example 45b] and Cn1c(-c2cc3cccc(OCCc4cccnc4)c3n2CC2CC2)nc2cc3c(nc21)CCN(C[C@H](N)CF)C3=O [Example 56, (S)-7-(2-amino-3-fluoropropyl)-2-(1-(cyclopropylmethyl)-7-(2-(pyridin-3-yl)ethoxy)-1H-indol-2-yl)-3-methyl-3,5,6,7-tetrahydro-8H-imidazo[4,5-b][1,6]naphthyridin-8-one] cannot be ordered by pIC50: at least 8.00 for the first, at least 8.00 for the second.

First: Cc1nnc(CCOc2cccc3cc(-c4nc5cc6c(nc5n4C)CCN(C[C@H](N)CF)C6=O)n(CC4CC4)c23)s1 [Example 55, (S)-7-(2-amino-3-fluoropropyl)-2-(1-(cyclopropylmethyl)-7-(2-(5-methyl-1,3,4-thiadiazol-2-yl)ethoxy)-1H-indol-2-yl)-3-methyl-3,5,6,7-tetrahydro-8H-imidazo[4,5-b][1,6]naphthyridin-8-one]
Second: Cn1c(-c2cc3cccc(OCCn4ccnc4Cl)c3n2CC2CC2)nc2cc3c(nc21)CCN(C[C@H](N)CF)C3=O [Example 93, (S)-7-(2-amino-3-fluoropropyl)-2-(7-(2-(2-chloro-1H-imidazol-1-yl)ethoxy)-1-(cyclopropylmethyl)-1H-indol-2-yl)-3-methyl-3,5,6,7-tetrahydro-8H-imidazo[4,5-b][1,6]naphthyridin-8-one]
The pIC50 of the first is lower: 6.30 to 7.00 for the first, 7.00 to 7.96 for the second. The second is the more potent here.

C[C@H](Cn1cnc(F)c1)Oc1cccc2cc(-c3nc4cc5c(nc4n3C)CCN(C[C@H](N)CF)C5=O)n(CC3CC3)c12 [Example 67, 7-((S)-2-amino-3-fluoropropyl)-2-(1-(cyclopropylmethyl)-7-(((R)-1-(4-fluoro-1H-imidazol-1-yl)propan-2-yl)oxy)-1H-indol-2-yl)-3-methyl-3,5,6,7-tetrahydro-8H-imidazo[4,5-b][1,6]naphthyridin-8-one] and Cn1c(-c2cc3cccc(OC(F)Cn4cnc(F)c4)c3n2CC2CC2)nc2cc3c(nc21)CCN(C[C@H](N)CF)C3=O (single isomer, unassigned) [Example 73a] cannot be ordered by pIC50: at least 8.00 for the first, at least 8.00 for the second.

First: CO[C@H](C)C(=O)N1CCC(c2cccc3cc(-c4nc5cc6c(nc5n4C)CCN(C[C@H](N)CF)C6=O)n(CC4CC4)c23)CC1 [Example 31, 7-((S)-2-amino-3-fluoropropyl)-2-(1-(cyclopropylmethyl)-7-(1-((R)-2-methoxypropanoyl)piperidin-4-yl)-1H-indol-2-yl)-3-methyl-3,5,6,7-tetrahydro-8H-imidazo[4,5-b][1,6]naphthyridin-8-one]
Second: C[C@H](O)C(=O)N1CCC(c2cccc3cc(-c4nc5cc6c(nc5n4C)CCN(C[C@H](N)CF)C6=O)n(CC4CC4)c23)CC1 [Example 32, 7-((S)-2-amino-3-fluoropropyl)-2-(1-(cyclopropylmethyl)-7-(1-((S)-2-hydroxypropanoyl)piperidin-4-yl)-1H-indol-2-yl)-3-methyl-3,5,6,7-tetrahydro-8H-imidazo[4,5-b][1,6]naphthyridin-8-one]
The pIC50 of the first is higher: 7.00 to 7.96 for the first, 6.30 to 7.00 for the second. The first is the more potent here.

COC(=O)N1CC[C@@H](Oc2cccc3cc(-c4nc5cc6c(nc5n4C)CCN(C[C@H](N)CF)C6=O)n(CC4CC4)c23)C1 [Example 40, methyl (R)-3-((2-(7-((S)-2-amino-3-fluoropropyl)-3-methyl-8-oxo-5,6,7,8-tetrahydro-3H-imidazo[4,5-b][1,6]naphthyridin-2-yl)-1-(cyclopropylmethyl)-1H-indol-7-yl)oxy)pyrrolidine-1-carboxylate] and Cn1c(-c2cc3cccc(OCC(F)n4ccnc4)c3n2CC2CC2)nc2cc3c(nc21)CCN(C[C@H](N)CF)C3=O (single isomer, unassigned) [Example 79a] fall in the same range of pIC50: 7.00 to 7.96 for the first, 7.00 to 7.96 for the second.

First: Cn1c(-c2cc3cccc(/C=C/Cn4cncc4F)c3n2CC2CC2)nc2cc3c(nc21)CCN(C[C@H](N)CF)C3=O [Example 98, (S,E)-7-(2-amino-3-fluoropropyl)-2-(1-(cyclopropylmethyl)-7-(3-(5-fluoro-1H-imidazol-1-yl)prop-1-en-1-yl)-1H-indol-2-yl)-3-methyl-3,5,6,7-tetrahydro-8H-imidazo[4,5-b][1,6]naphthyridin-8-one]
Second: C[C@H](Cn1cncc1F)Oc1cccc2cc(-c3nc4cc5c(nc4n3C)CCN(C[C@H](N)CF)C5=O)n(CC3CC3)c12 [Example 69, 7-((S)-2-amino-3-fluoropropyl)-2-(1-(cyclopropylmethyl)-7-(((R)-1-(5-fluoro-1H-imidazol-1-yl)propan-2-yl)oxy)-1H-indol-2-yl)-3-methyl-3,5,6,7-tetrahydro-8H-imidazo[4,5-b][1,6]naphthyridin-8-one]
The pIC50 of the first is lower: 6.30 to 7.00 for the first, 7.00 to 7.96 for the second. The second is the more potent here.

First: Cn1c(-c2cc3cccc(OCC(O)c4cnco4)c3n2CC2CC2)nc2cc3c(nc21)CCN(C[C@H](N)CF)C3=O (single isomer, unassigned) [Example 61b]
Second: C[C@@H](COc1cccc2cc(-c3nc4cc5c(nc4n3C)CCN(C[C@H](N)CF)C5=O)n(CC3CC3)c12)n1cnc(C#N)c1 [Example 87, 1-((S)-1-((2-(7-((S)-2-amino-3-fluoropropyl)-3-methyl-8-oxo-5,6,7,8-tetrahydro-3H-imidazo[4,5-b][1,6]naphthyridin-2-yl)-1-(cyclopropylmethyl)-1H-indol-7-yl)oxy)propan-2-yl)-1H-imidazole-4-carbonitrile]
The pIC50 of the first is lower: 6.30 to 7.00 for the first, 7.00 to 7.96 for the second.

First: COc1cccc2cc(-c3nc4cc5c(nc4n3C)CCN(C[C@H](N)CF)C5=O)n(CCOC(F)(F)F)c12 [Example 5, (S)-7-(2-amino-3-fluoropropyl)-2-(7-methoxy-1-(2-(trifluoromethoxy)ethyl)-1H-indol-2-yl)-3-methyl-3,5,6,7-tetrahydro-8H-imidazo[4,5-b][1,6]naphthyridin-8-one]
Second: COc1nccc2cc(-c3nc4cc5c(nc4n3C)CCN(C[C@H](N)CF)C5=O)n(CC(F)(F)F)c12 [Example 21, (S)-7-(2-amino-3-fluoropropyl)-2-(7-methoxy-1-(2,2,2-trifluoroethyl)-1H-pyrrolo[2,3-c]pyridin-2-yl)-3-methyl-3,5,6,7-tetrahydro-8H-imidazo[4,5-b][1,6]naphthyridin-8-one]
The pIC50 of the first is higher: 6.30 to 7.00 for the first, under 6.00 for the second. The first is the more potent here.

C[C@@H](Cn1ccnc1)Oc1cccc2cc(-c3nc4cc5c(nc4n3C)CCN(C[C@H](N)CF)C5=O)n(CC3CC3)c12 [Example 63, 2-(7-(((S)-1-(1H-imidazol-1-yl)propan-2-yl)oxy)-1-(cyclopropylmethyl)-1H-indol-2-yl)-7-((S)-2-amino-3-fluoropropyl)-3-methyl-3,5,6,7-tetrahydro-8H-imidazo[4,5-b][1,6]naphthyridin-8-one] and Cn1c(-c2cc3cccc(OC(C)(F)Cn4ccnc4)c3n2CC2CC2)nc2cc3c(nc21)CCN(C[C@H](N)CF)C3=O (single isomer, unassigned) [Example 76b] fall in the same range of pIC50: 7.00 to 7.96 for the first, 7.00 to 7.96 for the second.

Compared with [2H]c1nc([2H])n(CCOc2cccc3cc(-c4nc5cc6c(nc5n4C)CCN(C[C@H](N)CF)C6=O)n(CC4CC4)c23)c1[2H] [Example 90, (S)-2-(7-(2-(1H-imidazol-1-yl-d3)ethoxy)-1-(cyclopropylmethyl)-1H-indol-2-yl)-7-(2-amino-3-fluoropropyl)-3-methyl-3,5,6,7-tetrahydro-8H-imidazo[4,5-b][1,6]naphthyridin-8-one], COc1cccc2cc(-c3nc4cc5c(nc4n3C)CCN(C[C@@H](C)N)C5=O)n(Cc3ncco3)c12 [Example 25, (R)-7-(2-aminopropyl)-2-(7-methoxy-1-(oxazol-2-ylmethyl)-1H-indol-2-yI)-3-methyl-3,5,6,7-tetrahydro-8H-imidazo[4,5-b][1,6]naphthyridin-8-one] is lower in pIC50: at least 8.00 for the first, 6.30 to 7.00 for the second.
